Source: patent publication US20180228811A1, “GDNF INDUCTION FOR THE TREATMENT OF RETINAL DISORDERS” (THE SCHEPENS EYE RESEARCH INSTITUTE, INC., priority 2014, published 2018)
Where “and” joins values, the source holds several entries; their conditions need not be identical. Identical values can stand only once. Entries after “also recorded” stand apart in the source; their conditions may differ.

What was measured:
GDNF [1] = assay: GDNF induction in mouse eyecups differentiated from induced pluripotent stem cells (ELISA); type: cell-based
Method: GDNF induction […] was assessed using three retinal-specific cell systems: ARPE19, as a model for human retinal pigment epithelium; human retinal progenitor cells (hRPC), as a substitute for human retinal neurons/glia; and mouse eyecups, differentiated from induced pluripotent stem cells. ARPE19 cells are described in Dunn et al., Exp. Eye Res. 62: 155-169, 1996. To study GDNF induction in a human retinal pigment epithelium cell line, ARPE19, thawed ARPE19 cells (passage 33, ATCC) were plated on fibronectin (Akron)-coated plates (Nunc) in stimulation medium at a density of 10 k cells/sq.cm. The flasks were incubated at standard conditions: 37° C., 5% CO2, 100% humidity. Cells were plated 24 hours prior to Compound I treatment and were grown in Ultraculture medium (Lonza), supplemented with 1×MEM NEAA (Gibco), 1× L-glutamine (Gibco), 1× Antibiotic/antimycotic (Gibco), 2 ng/ml bFGF (Peprotech), 1 ng/ml EGF (Peprotech). […]
To study GDNF induction in retina-like tissue structures, mouse eyecups were differentiated from wild-type mouse induced pluripotent stem cells according to the protocol described previously (Eiraku, M. & Sasai, Y., Nat Protoc 7, 69-79 (2012)). […] The results of dose-dependent GDNF induction were analyzed by ANOVA (p<0.05).

GDNF [2] = assay: GDNF induction by Compound I aqueous solution in wild-type mice; type: in vivo, mouse; details: 3 hours; for GDNF mRNA induction compared to vehicle-treated control: wild type mice; for GDNF protein upregulation compared to untreated control: wildtype mice, vehicle 1.5 fold
Method: (§1) All animal procedures were performed under general (intraperitoneal ketamine/xylazine) and topical (proparacaine drops) anesthesia. Tropicamide was applied for pupil dilation. After injection, the eye was treated with antibiotic ointment (Bacitracin-Neomycin-Polymyxin). The same procedures were applied to control eyes.
(§2) To study GDNF induction by Compound I aqueous solution, 1 ul of 10 uM (n=5) or 100 uM (n=5) water-based Compound I or 1 ul of Vehicle (n=5) was administered intravitreally using beveled glass needle, connected to a Hamilton syringe through polyethylene tubing. During the injection, corneal paracenthesis was performed to reduce intraocular pressure. Compound I was injected into 4-week old wildtype (C57/Bl6, Jackson labs) and rhodopsin knockout (Humphries et al., Nat. Genet. 15, 216-219 (1997)).
(§3) Three hours after the injection animals were euthanized using CO2, then the death was confirmed by cervical dislocation. The treated and untreated eyes were enucleated and placed in 250 ul of chilled RNAlater buffer (Qiagen) and stored at 4° C. Later, eyes were excised and total neural retina with retinal pigment epithelium were collected into 400 ul of Lysis buffer (Qiagen RNeasy kit) with 5 mM beta-mercaptoethanol. Total RNA was isolated using RNeasy kit (Qiagen) and eluted with 100 ul of Ultrapure water (Life technologies). All flow through from RNA isolation (˜2.4 ml) was collected and mixed with 10 ml of ice-cold (−20° C.) acetone for protein precipitation. The protein was precipitated at −20° C. for 30 minutes, then pelleted at 3500 rpm for 20 min. Pellets were washed once with 100% ethanol, then reconstituted with 300 ul of RIPA buffer with 0.2 mM 4-benzenesulfonyl fluoride hydrochloride (Tocris). mRNA and protein expression were assessed by qPCR and Western Blot and normalized to GAPDH and βActin. The statistical analysis was performed using a T-test (p<0.05) with Bonferroni post-hoc test.

GDNF [3] = assay: GDNF induction by Compound I aqueous solution in rhodopsin knockout mice; type: in vivo, mouse; details: 3 hours; for GDNF protein upregulation: vehicle 1.2 fold
Method: as §1, §2, §3

photoreceptors = assay: Photoreceptor rescue by Compound I suspension in rhodopsin knockout mice (H&E cell count); type: in vivo, mouse; details: rho-/- mice
Method: To study photoreceptor rescue by Compound I suspension (60 mg/ml), 2 ul of suspension (n=5) or Vehicle (n=5) were administered intravitreally to 4-week old rhodopsin knockout mice using a beveled glass needle, connected to a Hamilton syringe through polyethylene tubing. During the injection, corneal paracenthesis was performed to reduce intraocular pressure. 10 weeks after the injection, eyes were enucleated and fixed in Davidson solution for histological processing: paraffin embedding and sectioning. Six micron thick sections were cut in the area close to optic nerve head (ONH) and stained with hematoxylin-eosin (H&E) or processed for immunohistochemical analysis (IHC). H&E-stained sections were imaged (Olympus imaging system DP72) and total photoreceptor number was estimated based on the nuclei count in the outer nuclear layer (ONL). Cells were counted in each 100 um retina span starting from optic nerve head on three sections for each eye (five eyes per group). Total photoreceptor number per section was also calculated.

Structure (SMILES): COc1cc2c(cc1S(=O)(=O)c1ccc(OCc3ccc(Cl)cc3)cc1)CCN(C)CC2 [Compound I, 7-[4-(4-chloro-benzyloxy)-benzenesulfonyl]-8-methoxy-3-methyl-2,3,4,5-tetrahydro-1H-3-benzazepine]
- GDNF induction (GDNF [1]): More than 2 fold
- GDNF induction, result in words (GDNF [1]; 0 to 10 uM): Significant dose-dependent GDNF induction
- GDNF mRNA induction compared to vehicle-treated control (GDNF [2]; 1 ul of 10 uM solution intravitreally): 1.3 fold
- GDNF mRNA induction compared to vehicle-treated control (GDNF [2]; 1 ul of 100 uM solution intravitreally): 1.9 fold
- GDNF protein upregulation compared to untreated control (GDNF [2]; 10 uM solution intravitreally): 2.3 fold
- GDNF protein upregulation compared to untreated control (GDNF [2]; 100 uM solution intravitreally): 2.3 fold
- GDNF mRNA induction compared to vehicle-treated control (GDNF [3]; 10 uM solution intravitreally): 1.8 fold
- GDNF protein upregulation (GDNF [3]; 10 uM solution intravitreally): > 2 fold and 2.8 fold
- GDNF mRNA induction compared to vehicle-treated control (GDNF [3]; 100 uM solution intravitreally): 1.7 fold
- GDNF protein upregulation (GDNF [3]; 100 uM solution intravitreally): > 2 fold and 2.6 fold
- increase in photoreceptor cell number pan-retinally compared to uninjected and vehicle (photoreceptors; 2 ul of 60 mg/ml suspension intravitreally at 4 weeks of age, 10 weeks after injection): 2 fold and 2.1 fold
- total photoreceptor cells per section (photoreceptors; suspension, 10 weeks after injection, uninjected 516, vehicle 508): 1210 cells per section
- retinal pigment epithelium, inner nuclear and ganglion cell layers, histology (photoreceptors; suspension, 10 weeks after the treatment): no changes in the retinal pigment epithelium, inner nuclear or ganglion cell layers
- increase in photoreceptor cell number in the area close to the optic nerve head (ONH) (photoreceptors; suspension, 200 micron area): 1.5 fold
- outer nuclear layer (ONL), histology (photoreceptors; suspension, compared to vehicle-treated and untreated eyes): preserved; also recorded: significant increase in ONL thickness
- photoreceptors per 200 um close to the ONH (photoreceptors; suspension, non-treated 46, vehicle control 39): 63 photoreceptors per 200 um
